According to PubChem BioAssay AID328 (DTP/NCI, 2004):
Several values for one entry are separate records, joined by “and”; a condition that tells them apart may be missing. Identical values can stand only once. Inconclusive results and toxic doses are left out.

System: BDF1 mice, P388 leukemia ip, median survival T/C
Assay: NCI In Vivo Anticancer Drug Screen. Data for tumor model P388 Leukemia (intraperitoneal) in B6D2F1 (BDF1) mice
Conditions: endpoint: median survival time, higher = longer survival
Outline: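 Each value expresses how treatment altered survival: treated-mouse outcome over vehicle-mouse outcome, both groups bearing the transplanted tumour.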

[1] = dose: 20.0 mg/kg/injection, schedule: Q01DX009 (ip), vehicle: saline
[2] = dose: 50.0 mg/kg/injection, schedule: Q01DX009 (ip), vehicle: saline
[3] = dose: 100.0 mg/kg/injection, schedule: Q04DX003 (ip), vehicle: saline
[4] = dose: 150.0 mg/kg/injection, schedule: Q04DX003 (ip), vehicle: saline
[5] = dose: 200.0 mg/kg/injection, schedule: Q04DX003 (ip), vehicle: saline
[6] = dose: 25.0 mg/kg/injection, schedule: Q01DX009 (ip), vehicle: saline with Tween-80
[7] = dose: 50.0 mg/kg/injection, schedule: Q01DX009 (ip), vehicle: saline with Tween-80
[8] = dose: 100.0 mg/kg/injection, schedule: Q01DX009 (ip), vehicle: saline with Tween-80
[9] = dose: 200.0 mg/kg/injection, schedule: Q01DX009 (ip), vehicle: saline with Tween-80
[10] = dose: 100.0 mg/kg/injection, schedule: Q01DX009 (ip), vehicle: Klucel (hydroxypropylcellulose) (HPC)
[11] = dose: 100.0 mg/kg/injection, schedule: Q04DX003 (ip), vehicle: Klucel (hydroxypropylcellulose) (HPC)
[12] = dose: 200.0 mg/kg/injection, schedule: Q04DX003 (ip), vehicle: Klucel (hydroxypropylcellulose) (HPC)
[13] = dose: 12.5 mg/kg/injection, schedule: Q01DX009 (ip), vehicle: saline with Tween-80
[14] = dose: 400.0 mg/kg/injection, schedule: Q04DX003 (ip), vehicle: saline
[15] = dose: 100.0 mg/kg/injection, schedule: Q01DX009 (ip), vehicle: saline

SMILES: O=P(N1CC1)(N1CC1)N1CCc2ccccc21
- T/C (dose: 9.0 mg/kg/injection, schedule: Q01DX009 (ip), vehicle: saline): 91 % of control
- T/C (dose: 13.0 mg/kg/injection, schedule: Q01DX009 (ip), vehicle: saline): 104 % of control
- T/C [1]: 104 % of control
- T/C (dose: 30.0 mg/kg/injection, schedule: Q04DX003 (ip), vehicle: saline): 114 % of control
- T/C (dose: 33.0 mg/kg/injection, schedule: Q01DX009 (ip), vehicle: saline): 157 % of control
- T/C (dose: 44.0 mg/kg/injection, schedule: Q04DX003 (ip), vehicle: saline): 117 % of control and 119 % of control
- T/C [2]: 166 % of control and 173 % of control
- T/C (dose: 75.0 mg/kg/injection, schedule: Q01DX009 (ip), vehicle: saline): 176 % of control
- T/C [3]: 170 % of control and 176 % of control
- T/C [4]: 255 % of control and 195 % of control
- T/C [5]: 96 % of control

SMILES: O=CC(OC(=O)c1ccccc1)C(OC(=O)c1ccccc1)C(COC(c1ccccc1)(c1ccccc1)c1ccccc1)OC(=O)c1ccccc1 (stereo unspecified)
- T/C [6]: 110 % of control
- T/C [7]: 110 % of control
- T/C [8]: 120 % of control
- T/C [9]: 100 % of control and 108 % of control

SMILES: Cc1ccc(C2=NNc3n[nH]c(=S)n3N2)cc1
- T/C (dose: 100.0 mg/kg/injection, schedule: Q04DX003 (ip), vehicle: saline with Tween-80): 91 % of control
- T/C (dose: 200.0 mg/kg/injection, schedule: Q04DX003 (ip), vehicle: saline with Tween-80): 95 % of control
- T/C (dose: 400.0 mg/kg/injection, schedule: Q04DX003 (ip), vehicle: saline with Tween-80): 100 % of control

SMILES: NNC(=O)c1ccc(Br)cc1
- T/C (dose: 50.0 mg/kg/injection, schedule: Q01DX009 (ip), vehicle: Klucel (hydroxypropylcellulose) (HPC)): 96 % of control
- T/C [10]: 92 % of control
- T/C [11]: 95 % of control
- T/C [12]: 91 % of control

SMILES: CC1(C)CC1(Br)Br
- T/C [13]: 100 % of control
- T/C [6]: 106 % of control
- T/C [8]: 98 % of control and 100 % of control

SMILES: CC(=O)CC(C)=O.CC(=O)CC(C)=O.CC(=O)CC(C)=O.[Cr]
- T/C [3]: 90 % of control
- T/C [5]: 90 % of control
- T/C [14]: 90 % of control

SMILES: CC(Nc1ccccc1)(C(N)=O)c1ccccc1 (stereo unspecified)
- T/C (dose: 25.0 mg/kg/injection, schedule: Q01DX001 (ip), vehicle: saline with Tween-80): 90 % of control
- T/C (dose: 50.0 mg/kg/injection, schedule: Q01DX001 (ip), vehicle: saline with Tween-80): 104 % of control
- T/C (dose: 100.0 mg/kg/injection, schedule: Q01DX001 (ip), vehicle: saline with Tween-80): 95 % of control
- T/C (dose: 200.0 mg/kg/injection, schedule: Q01DX001 (ip), vehicle: saline with Tween-80): 90 % of control
- T/C (dose: 400.0 mg/kg/injection, schedule: Q01DX001 (ip), vehicle: saline with Tween-80): 95 % of control

SMILES: NN=C(c1ccccc1)c1ccccc1
- T/C (dose: 20.93 mg/kg/injection, schedule: Q01DX009 (ip), vehicle: Klucel (hydroxypropylcellulose) (HPC)): 86 % of control
- T/C (dose: 31.25 mg/kg/injection, schedule: Q04DX003 (ip), vehicle: Klucel (hydroxypropylcellulose) (HPC)): 90 % of control and 104 % of control
- T/C (dose: 41.87 mg/kg/injection, schedule: Q01DX009 (ip), vehicle: Klucel (hydroxypropylcellulose) (HPC)): 95 % of control
- T/C (dose: 62.5 mg/kg/injection, schedule: Q04DX003 (ip), vehicle: Klucel (hydroxypropylcellulose) (HPC)): 90 % of control
- T/C (dose: 125.0 mg/kg/injection, schedule: Q04DX003 (ip), vehicle: Klucel (hydroxypropylcellulose) (HPC)): 90 % of control
- T/C (dose: 190.0 mg/kg/injection, schedule: Q04DX003 (ip), vehicle: Klucel (hydroxypropylcellulose) (HPC)): 86 % of control

SMILES: c1ccc2c(c1)nnn1c3ncccc3nc21
- T/C [7]: 115 % of control

SMILES: Cc1ccc(N=Cc2ccccc2)cc1
- T/C [10]: 95 % of control
- T/C [11]: 100 % of control
- T/C (dose: 200.0 mg/kg/injection, schedule: Q01DX009 (ip), vehicle: Klucel (hydroxypropylcellulose) (HPC)): 100 % of control
- T/C [12]: 108 % of control
- T/C (dose: 400.0 mg/kg/injection, schedule: Q01DX009 (ip), vehicle: Klucel (hydroxypropylcellulose) (HPC)): 90 % of control
- T/C (dose: 400.0 mg/kg/injection, schedule: Q04DX003 (ip), vehicle: Klucel (hydroxypropylcellulose) (HPC)): 108 % of control

SMILES: CSc1ncc2cnccn12
- T/C (dose: 12.5 mg/kg/injection, schedule: Q01DX009 (ip), vehicle: water): 105 % of control
- T/C (dose: 25.0 mg/kg/injection, schedule: Q01DX009 (ip), vehicle: water): 96 % of control
- T/C (dose: 25.0 mg/kg/injection, schedule: Q04DX003 (ip), vehicle: water): 100 % of control
- T/C (dose: 50.0 mg/kg/injection, schedule: Q01DX009 (ip), vehicle: water): 100 % of control
- T/C (dose: 50.0 mg/kg/injection, schedule: Q04DX003 (ip), vehicle: water): 104 % of control
- T/C (dose: 100.0 mg/kg/injection, schedule: Q04DX003 (ip), vehicle: water): 95 % of control

SMILES: O=[N+]([O-])/C=C/c1ccc(O)cc1
- T/C (dose: 6.25 mg/kg/injection, schedule: Q01DX009 (ip), vehicle: saline with Tween-80): 100 % of control
- T/C [13]: 102 % of control
- T/C [6]: 110 % of control
- T/C [7]: 107 % of control

SMILES: CCCC(=O)Nc1ccc(N)cc1OC
- T/C (dose: 5.0 mg/kg/injection, schedule: Q01DX009 (ip), vehicle: saline): 100 % of control
- T/C (dose: 5.0 mg/kg/injection, schedule: Q04DX003 (ip), vehicle: saline): 91 % of control
- T/C (dose: 10.0 mg/kg/injection, schedule: Q01DX009 (ip), vehicle: saline): 100 % of control
- T/C (dose: 10.0 mg/kg/injection, schedule: Q04DX003 (ip), vehicle: saline): 100 % of control
- T/C [1]: 100 % of control
- T/C (dose: 20.0 mg/kg/injection, schedule: Q04DX003 (ip), vehicle: saline): 91 % of control

SMILES: COC(=O)C(NC=O)C(=O)OC
- T/C [15]: 100 % of control
- T/C [3]: 100 % of control
- T/C (dose: 200.0 mg/kg/injection, schedule: Q01DX009 (ip), vehicle: saline): 114 % of control
- T/C [5]: 90 % of control
- T/C (dose: 400.0 mg/kg/injection, schedule: Q01DX009 (ip), vehicle: saline): 100 % of control
- T/C [14]: 90 % of control

SMILES: c1ccc([P+](C[P+](c2ccccc2)(c2ccccc2)c2ccccc2)(c2ccccc2)c2ccccc2)cc1
- T/C (dose: 0.39 mg/kg/injection, schedule: Q01DX009 (ip), vehicle: Klucel (hydroxypropylcellulose) (HPC)): 109 % of control
- T/C (dose: 0.78 mg/kg/injection, schedule: Q01DX009 (ip), vehicle: Klucel (hydroxypropylcellulose) (HPC)): 109 % of control
- T/C (dose: 1.56 mg/kg/injection, schedule: Q01DX009 (ip), vehicle: Klucel (hydroxypropylcellulose) (HPC)): 118 % of control
- T/C (dose: 1.72 mg/kg/injection, schedule: Q04DX003 (ip), vehicle: Klucel (hydroxypropylcellulose) (HPC)): 109 % of control
- T/C (dose: 2.3 mg/kg/injection, schedule: Q01DX009 (ip), vehicle: Klucel (hydroxypropylcellulose) (HPC)): 115 % of control
- T/C (dose: 3.45 mg/kg/injection, schedule: Q04DX003 (ip), vehicle: Klucel (hydroxypropylcellulose) (HPC)): 122 % of control
- T/C (dose: 6.9 mg/kg/injection, schedule: Q04DX003 (ip), vehicle: Klucel (hydroxypropylcellulose) (HPC)): 90 % of control

SMILES: CC(C)(C)[N]1[Si](C)(C)[N](C(C)(C)C)[Sn]12[S][Sn]1([S]2)[N](C(C)(C)C)[Si](C)(C)[N]1C(C)(C)C
- T/C [7]: 100 % of control
- T/C [8]: 94 % of control
- T/C [9]: 86 % of control

SMILES: c1nnc(NCNc2nncs2)s1
- T/C (dose: 12.0 mg/kg/injection, schedule: Q04DX003 (ip), vehicle: saline): 100 % of control
- T/C (dose: 12.5 mg/kg/injection, schedule: Q01DX010 (ip), vehicle: saline): 204 % of control
- T/C (dose: 19.0 mg/kg/injection, schedule: Q04DX003 (ip), vehicle: saline): 118 % of control
- T/C (dose: 25.0 mg/kg/injection, schedule: Q01DX010 (ip), vehicle: saline): 227 % of control
- T/C (dose: 29.0 mg/kg/injection, schedule: Q04DX003 (ip), vehicle: saline): 186 % of control
- T/C (dose: 45.0 mg/kg/injection, schedule: Q04DX003 (ip), vehicle: saline): 177 % of control
- T/C [2]: 100 % of control
- T/C (dose: 50.0 mg/kg/injection, schedule: Q01DX010 (ip), vehicle: saline): 90 % of control
- T/C (dose: 50.0 mg/kg/injection, schedule: Q04DX003 (ip), vehicle: saline): 190 % of control
- T/C (dose: 66.0 mg/kg/injection, schedule: Q04DX003 (ip), vehicle: saline): 150 % of control and 195 % of control
- T/C [15]: 100 % of control
- T/C [3]: 227 % of control and 235 % of control and 195 % of control
- T/C [4]: 210 % of control and 213 % of control
